# Patent US8435393B2, “Instrument and system for pharmacologic measurement and well vessel used therein” (Panasonic Corporation, priority 2003, dated 2013)
# Key:
# [1] = system: carbachol (CCh) sensitive ion channel; test: Intracellular potential response of an HEK cell by the patch clamp method (Comparative Example 2); format: cell-based, human; conditions: HEK-293 cell expressing CCh sensitive ion channel; CCh 100 μM; in 6 sec after CCh is dropped; glass patch pipette
# Protocol: (§1) The solution holding section 17 was filled with a culture fluid and 8000 HEK cells are seeded in the holding section in dispersion. The culture fluid used was HEPES buffer DMEM+10 wt % FBS. A cell was sucked from the back surface to be thereby fitted into the hole and thereafter, the culture fluid was replaced with a measurement solution. A composition of the measurement solution was such that Ringer's solution was contained as a base, a Ca concentration was adjusted to 2 mM and an osmotic pressure was set to […].
# In FIG. 13, as Comparative Example 2, there is shown results obtained by measurement of a response of an intracellular potential in an HEK cell for the same medicine in a similar way while a glass patch pipette is attached to the cell using a patch clamp method, which is a conventional method for measurement of an intracellular potential. A CCh concentration was 100 μM in a similar way. […] There is observed a noise change (from F to G in FIG. 13) due to a CCh sensitive channel response.
# [2] = system: carbachol (CCh) sensitive ion channel; test: Extracellular potential (voltage noise) recording of HEK cells with the instrument of Example 1; format: cell-based, human; conditions: HEK-293 cells; Ringer's solution replaced with Ringer's solution containing CCh 100 μM; FIG. 11 between F1 and G1
# Protocol: as §1
# FIG. 11 is a graph showing a voltage noise when the above Ringer's solution was replaced with a Ringer's solution containing CCh 100 μM using Example 1. […] It was recognized that a voltage noise is increased by CCh dropping (in FIG. 11, between F1 and G1). On the other hand, in FIG. 12, there is shown results obtained by conducting a similar experiment in a convention method (Comparative Example 1). The measurement was obtained in a procedure in which a first stage amplification in the preamplifier was multiplication by a factor of 100 and thereafter further amplified by a factor of 100. LPF was set at 5 kHz. A medicine (CCh) was dropped only for a time expressed with an open square in the figure.
smiles,measurement,setting,value
"C[N+](C)(C)CCOC(N)=O [CCh, carbachol]",Depolarization of intracellular potential,[1],about 10 mV
same,Voltage noise change on CCh dropping,[2],increased
